According to ChEMBL document CHEMBL5518226, “A Vancomycin-Templated DNA-Encoded Library for Combating Drug-Resistant Bacteria” (2024):
≈ marks a conversion by molar mass, not a printed value.

Experiments:
Assay type in all cases: functional
Staphylococcus aureus [1] = experiment: Antibacterial activity against methicillin sensitive Staphylococcus aureus Newman assessed as inhibition of bacterial growth incubated for 24 hrs by CLSI protocol based broth microdilution method
Staphylococcus aureus [2] = experiment: Antibacterial activity against methicillin resistant Staphylococcus aureus USA300 assessed as inhibition of bacterial growth incubated for 24 hrs by CLSI protocol based broth microdilution method
Staphylococcus aureus [3] = experiment: Antibacterial activity against methicillin resistant Staphylococcus aureus clinical isolate 20-34 assessed as inhibition of bacterial growth incubated for 24 hrs by CLSI protocol based broth microdilution method
Enterococcus faecalis [4] = experiment: Antibacterial activity against vancomycin resistant Enterococcus faecalis clinical isolate 20-1 assessed as inhibition of bacterial growth incubated for 24 hrs by CLSI protocol based broth microdilution method
Streptococcus pneumoniae [5] = experiment: Antibacterial activity against Streptococcus pneumoniae ATCC49619 assessed as inhibition of bacterial growth incubated for 24 hrs by CLSI protocol based broth microdilution method
Enterococcus faecium [6] = experiment: Antibacterial activity against vancomycin-resistant Enterococcus faecium 0649 assessed as reduction in bacterial growth by measuring fold change at 0.0625 to 64 ug/ml incubated for 24 hrs by CLSI protocol based broth microdilution method relative to vancomycin; conditions: dose 0.0625-64 µg/ml
Staphylococcus aureus [7] = experiment: Antibacterial activity against methicillin sensitive Staphylococcus aureus clinical isolate 20-45 assessed as inhibition of bacterial growth incubated for 24 hrs by CLSI protocol based broth microdilution method
Staphylococcus aureus [8] = experiment: Antibacterial activity against vancomycin-intermediate resistant Staphylococcus aureus Mu50 assessed as reduction in bacterial growth by measuring fold change at 0.0625 to 64 ug/ml incubated for 24 hrs by CLSI protocol based broth microdilution method relative to vancomycin; conditions: dose 0.0625-64 µg/ml
Streptococcus pneumoniae [9] = experiment: Antibacterial activity against penicillin susceptible Streptococcus pneumoniae clinical isolate 20-1 assessed as inhibition of bacterial growth incubated for 24 hrs by CLSI protocol based broth microdilution method
Enterococcus faecium [10] = experiment: Antibacterial activity against Enterococcus faecium clinical isolate 20-16 assessed as inhibition of bacterial growth incubated for 24 hrs by CLSI protocol based broth microdilution method
Staphylococcus aureus [11] = experiment: Antibacterial activity against methicillin sensitive Staphylococcus aureus ATCC29213 assessed as inhibition of bacterial growth incubated for 24 hrs by CLSI protocol based broth microdilution method
Enterococcus faecium [12] = experiment: Antibacterial activity against Enterococcus faecium clinical isolate 20-15 assessed as inhibition of bacterial growth incubated for 24 hrs by CLSI protocol based broth microdilution method
Enterococcus faecalis [13] = experiment: Antibacterial activity against Enterococcus faecalis clinical isolate 20-11 assessed as inhibition of bacterial growth incubated for 24 hrs by CLSI protocol based broth microdilution method
[14] = test system: Staphylococcus epidermidis; experiment: Antibacterial activity against methicillin sensitive Staphylococcus epidermidis clinical isolate 20-1 assessed as inhibition of bacterial growth incubated for 24 hrs by CLSI protocol based broth microdilution method
Staphylococcus aureus [15] = experiment: Antibacterial activity against vancomycin-intermediate resistant Staphylococcus aureus ATCC700699 assessed as inhibition of bacterial growth incubated for 24 hrs by CLSI protocol based broth microdilution method
[16] = test system: Staphylococcus epidermidis; experiment: Antibacterial activity against methicillin resistant Staphylococcus epidermidis clinical isolate 20-1 assessed as inhibition of bacterial growth incubated for 24 hrs by CLSI protocol based broth microdilution method

SMILES | MIC (Staphylococcus aureus [1]) | MIC (Staphylococcus aureus [2]) | MIC (Staphylococcus aureus [3]) | MIC (Enterococcus faecalis [4]) | MIC (Streptococcus pneumoniae [5]) | fold change (FC) (Enterococcus faecium [6]) | MIC (Staphylococcus aureus [7]) | fold change (FC) (Staphylococcus aureus [8]) | MIC (Streptococcus pneumoniae [9]) | MIC (Enterococcus faecium [10]) | MIC (Staphylococcus aureus [11]) | MIC (Enterococcus faecium [12]) | MIC (Enterococcus faecalis [13]) | MIC [14] | MIC (Staphylococcus aureus [15]) | MIC [16]
CN[C@H](CC(C)C)C(=O)N[C@H]1C(=O)N[C@@H](CC(N)=O)C(=O)N[C@H]2C(=O)N[C@H]3C(=O)N[C@H](C(=O)N[C@H](C(=O)O)c4cc(O)cc(O)c4-c4cc3ccc4O)[C@H](O)c3ccc(c(Cl)c3)Oc3cc2cc(c3O[C@@H]2O[C@H](CO)[C@@H](O)[C@H](O)[C@H]2O[C@H]2C[C@](C)(NCc3ccc(C#Cc4ccccc4)cc3)[C@H](O)[C@H](C)O2)Oc2ccc(cc2Cl)[C@H]1O | ≤ 0.06 µg/mL | ≤ 0.06 µg/mL | 1 µg/mL (≈ 0.61 µM) | 4 µg/mL (≈ 2.44 µM) | ≤ 0.015 µg/mL | 16 | ≤ 0.015 µg/mL | 8 | ≤ 0.015 µg/mL | ≤ 0.015 µg/mL | ≤ 0.015 µg/mL | ≤ 0.015 µg/mL | ≤ 0.015 µg/mL | ≤ 0.015 µg/mL | 0.125 µg/mL (≈ 0.0762 µM) | –
CN[C@H](CC(C)C)C(=O)N[C@H]1C(=O)N[C@@H](CC(N)=O)C(=O)N[C@H]2C(=O)N[C@H]3C(=O)N[C@H](C(=O)N[C@H](C(=O)O)c4cc(O)c(CN(C)Cc5cn(-c6cccc(NC(=O)OC(C)(C)C)c6)nn5)c(O)c4-c4cc3ccc4O)[C@H](O)c3ccc(c(Cl)c3)Oc3cc2cc(c3O[C@@H]2O[C@H](CO)[C@@H](O)[C@H](O)[C@H]2O[C@H]2C[C@](C)(NCc3ccccc3Oc3ccccc3)[C@H](O)[C@H](C)O2)Oc2ccc(cc2Cl)[C@H]1O | – | – | – | – | – | 8 | – | – | – | – | – | – | – | – | – | –
CN[C@H](CC(C)C)C(=O)N[C@H]1C(=O)N[C@@H](CC(N)=O)C(=O)N[C@H]2C(=O)N[C@H]3C(=O)N[C@H](C(=O)N[C@H](C(=O)O)c4cc(O)cc(O)c4-c4cc3ccc4O)[C@H](O)c3ccc(c(Cl)c3)Oc3cc2cc(c3O[C@@H]2O[C@H](CO)[C@@H](O)[C@H](O)[C@H]2O[C@H]2C[C@](C)(NCc3ccc(Oc4cc(Cl)cc(Cl)c4)cc3)[C@H](O)[C@H](C)O2)Oc2ccc(cc2Cl)[C@H]1O | ≤ 0.06 µg/mL | ≤ 0.06 µg/mL | – | 4 µg/mL (≈ 2.35 µM) | ≤ 0.015 µg/mL | 16 | ≤ 0.015 µg/mL | 8 | ≤ 0.015 µg/mL | 0.03 µg/mL (≈ 0.0176 µM) | ≤ 0.015 µg/mL | ≤ 0.015 µg/mL | ≤ 0.015 µg/mL | ≤ 0.015 µg/mL | 0.125 µg/mL (≈ 0.0735 µM) | –
CN[C@H](CC(C)C)C(=O)N[C@H]1C(=O)N[C@@H](CC(N)=O)C(=O)N[C@H]2C(=O)N[C@H]3C(=O)N[C@H](C(=O)N[C@H](C(=O)O)c4cc(O)cc(O)c4-c4cc3ccc4O)[C@H](O)c3ccc(c(Cl)c3)Oc3cc2cc(c3O[C@@H]2O[C@H](CO)[C@@H](O)[C@H](O)[C@H]2O[C@H]2C[C@](C)(NCCCc3cn(-c4cccc(NC(=O)OC(C)(C)C)c4)nn3)[C@H](O)[C@H](C)O2)Oc2ccc(cc2Cl)[C@H]1O | – | – | – | – | – | 8 | – | 8 | – | – | – | – | – | – | – | –
CN[C@H](CC(C)C)C(=O)N[C@H]1C(=O)N[C@@H](CC(N)=O)C(=O)N[C@H]2C(=O)N[C@H]3C(=O)N[C@H](C(=O)N[C@H](C(=O)O)c4cc(O)cc(O)c4-c4cc3ccc4O)[C@H](O)c3ccc(c(Cl)c3)Oc3cc2cc(c3O[C@@H]2O[C@H](CO)[C@@H](O)[C@H](O)[C@H]2O[C@H]2C[C@](C)(NCCCc3cn(-c4ccc(OC(F)F)cc4)nn3)[C@H](O)[C@H](C)O2)Oc2ccc(cc2Cl)[C@H]1O | – | – | – | – | – | 8 | – | 8 | – | – | – | – | – | – | – | –
CN[C@H](CC(C)C)C(=O)N[C@H]1C(=O)N[C@@H](CC(N)=O)C(=O)N[C@H]2C(=O)N[C@H]3C(=O)N[C@H](C(=O)N[C@H](C(=O)O)c4cc(O)cc(O)c4-c4cc3ccc4O)[C@H](O)c3ccc(c(Cl)c3)Oc3cc2cc(c3O[C@@H]2O[C@H](CO)[C@@H](O)[C@H](O)[C@H]2O[C@H]2C[C@](C)(NCc3ccc(Oc4ccccc4)cc3)[C@H](O)[C@H](C)O2)Oc2ccc(cc2Cl)[C@H]1O | ≤ 0.06 µg/mL | ≤ 0.06 µg/mL | – | 8 µg/mL (≈ 4.9 µM) | ≤ 0.03 µg/mL | 16 | ≤ 0.03 µg/mL | 8 | ≤ 0.03 µg/mL | ≤ 0.03 µg/mL | ≤ 0.03 µg/mL | ≤ 0.03 µg/mL | ≤ 0.03 µg/mL | 0.125 µg/mL (≈ 0.0766 µM) | 0.5 µg/mL (≈ 0.306 µM) | 0.25 µg/mL (≈ 0.153 µM)
CN[C@H](CC(C)C)C(=O)N[C@H]1C(=O)N[C@@H](CC(N)=O)C(=O)N[C@H]2C(=O)N[C@H]3C(=O)N[C@H](C(=O)N[C@H](C(=O)O)c4cc(O)c(CN(C)Cc5cn(-c6cccc(NC(=O)OC(C)(C)C)c6)nn5)c(O)c4-c4cc3ccc4O)[C@H](O)c3ccc(c(Cl)c3)Oc3cc2cc(c3O[C@@H]2O[C@H](CO)[C@@H](O)[C@H](O)[C@H]2O[C@H]2C[C@](C)(NCc3ccccc3-c3ccccc3)[C@H](O)[C@H](C)O2)Oc2ccc(cc2Cl)[C@H]1O | – | – | – | – | – | 8 | – | – | – | – | – | – | – | – | – | –
CN[C@H](CC(C)C)C(=O)N[C@H]1C(=O)N[C@@H](CC(N)=O)C(=O)N[C@H]2C(=O)N[C@H]3C(=O)N[C@H](C(=O)N[C@H](C(=O)O)c4cc(O)cc(O)c4-c4cc3ccc4O)[C@H](O)c3ccc(c(Cl)c3)Oc3cc2cc(c3O[C@@H]2O[C@H](CO)[C@@H](O)[C@H](O)[C@H]2O[C@H]2C[C@](C)(NCCCc3cn(Cc4ccc(Cl)c(Cl)c4)nn3)[C@H](O)[C@H](C)O2)Oc2ccc(cc2Cl)[C@H]1O | ≤ 0.015 µg/mL | ≤ 0.015 µg/mL | – | 4 µg/mL (≈ 2.33 µM) | ≤ 0.03 µg/mL | 8 | ≤ 0.03 µg/mL | 8 | ≤ 0.03 µg/mL | ≤ 0.03 µg/mL | ≤ 0.03 µg/mL | ≤ 0.03 µg/mL | ≤ 0.03 µg/mL | ≤ 0.03 µg/mL | 0.125 µg/mL (≈ 0.0728 µM) | 0.06 µg/mL (≈ 0.0349 µM)
CN[C@H](CC(C)C)C(=O)N[C@H]1C(=O)N[C@@H](CC(N)=O)C(=O)N[C@H]2C(=O)N[C@H]3C(=O)N[C@H](C(=O)N[C@H](C(=O)O)c4cc(O)cc(O)c4-c4cc3ccc4O)[C@H](O)c3ccc(c(Cl)c3)Oc3cc2cc(c3O[C@@H]2O[C@H](CO)[C@@H](O)[C@H](O)[C@H]2O[C@H]2C[C@](C)(NCc3ccc(Cl)cc3Cl)[C@H](O)[C@H](C)O2)Oc2ccc(cc2Cl)[C@H]1O | – | – | – | – | – | 8 | – | – | – | – | – | – | – | – | – | –
CN[C@H](CC(C)C)C(=O)N[C@H]1C(=O)N[C@@H](CC(N)=O)C(=O)N[C@H]2C(=O)N[C@H]3C(=O)N[C@H](C(=O)N[C@H](C(=O)O)c4cc(O)cc(O)c4-c4cc3ccc4O)[C@H](O)c3ccc(c(Cl)c3)Oc3cc2cc(c3O[C@@H]2O[C@H](CO)[C@@H](O)[C@H](O)[C@H]2O[C@H]2C[C@](C)(NCc3ccc(-c4ccc(C(F)(F)F)cc4)cc3)[C@H](O)[C@H](C)O2)Oc2ccc(cc2Cl)[C@H]1O | – | – | – | – | – | 16 | – | 8 | – | – | – | – | – | – | – | –
CN[C@H](CC(C)C)C(=O)N[C@H]1C(=O)N[C@@H](CC(N)=O)C(=O)N[C@H]2C(=O)N[C@H]3C(=O)N[C@H](C(=O)N[C@H](C(=O)O)c4cc(O)cc(O)c4-c4cc3ccc4O)[C@H](O)c3ccc(c(Cl)c3)Oc3cc2cc(c3O[C@@H]2O[C@H](CO)[C@@H](O)[C@H](O)[C@H]2O[C@H]2C[C@](C)(NCc3ccc(-c4ccccc4)s3)[C@H](O)[C@H](C)O2)Oc2ccc(cc2Cl)[C@H]1O | – | – | – | – | – | 16 | – | 8 | – | – | – | – | – | – | – | –
CN[C@H](CC(C)C)C(=O)N[C@H]1C(=O)N[C@@H](CC(N)=O)C(=O)N[C@H]2C(=O)N[C@H]3C(=O)N[C@H](C(=O)N[C@H](C(=O)O)c4cc(O)cc(O)c4-c4cc3ccc4O)[C@H](O)c3ccc(c(Cl)c3)Oc3cc2cc(c3O[C@@H]2O[C@H](CO)[C@@H](O)[C@H](O)[C@H]2O[C@H]2C[C@](C)(NCCCc3cn(C4CN(C(c5ccccc5)c5ccccc5)C4)nn3)[C@H](O)[C@H](C)O2)Oc2ccc(cc2Cl)[C@H]1O | ≤ 0.015 µg/mL | ≤ 0.015 µg/mL | – | 8 µg/mL (≈ 4.5 µM) | ≤ 0.03 µg/mL | 8 | ≤ 0.03 µg/mL | 8 | ≤ 0.03 µg/mL | ≤ 0.03 µg/mL | ≤ 0.03 µg/mL | ≤ 0.03 µg/mL | 0.06 µg/mL (≈ 0.0337 µM) | ≤ 0.03 µg/mL | 0.5 µg/mL (≈ 0.281 µM) | –
CN[C@H](CC(C)C)C(=O)N[C@H]1C(=O)N[C@@H](CC(N)=O)C(=O)N[C@H]2C(=O)N[C@H]3C(=O)N[C@H](C(=O)N[C@H](C(=O)O)c4cc(O)c(CN(C)Cc5cn(-c6cccc(NC(=O)OC(C)(C)C)c6)nn5)c(O)c4-c4cc3ccc4O)[C@H](O)c3ccc(c(Cl)c3)Oc3cc2cc(c3O[C@@H]2O[C@H](CO)[C@@H](O)[C@H](O)[C@H]2O[C@H]2C[C@](C)(NCc3cccc(-c4cc(F)ccc4F)n3)[C@H](O)[C@H](C)O2)Oc2ccc(cc2Cl)[C@H]1O | – | – | – | – | – | 8 | – | – | – | – | – | – | – | – | – | –
